Data on four molecules can be found in US12077503B2, “Substituted cyclic amides and their use as herbicides” (FMC CORPORATION, priority 2015, dated 2024).

Assay type in all cases: in vivo
Assay [1] deals with velvetleaf (Abutilon theophrasti). As to the kind of experiment: Test A postemergence. Particulars: Abutilon theophrasti, post-emergence, 240 h, Postemergence; for pest or weed control at 125 g/ha: 125 g ai/ha, visual rating about 10 d after treatment, read-out: Velvetleaf plant response rating (0 to 100 scale); for pest or weed control at 500 g/ha: 500 g ai/ha, visual injury, 0 to 100 scale (0 no effect, 100 complete control), approx. 10 d, read-out: Plant response rating, Velvetleaf. An outline of the steps:
(§1)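 Visual injury, scored on a 0–100 scale relative to untreated controls, was recorded about 10 d after application. Treatments were a preemergence soil spray over planted seeds or a postemergence spray on plants at the one- to two-leaf stage, 2 to 10 cm tall, all in loam soil–sand blend in the greenhouse.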

Assay [2] relates to morningglory (Ipomoea spp.). As to the kind of experiment: Test A postemergence. Particulars: Ipomoea, post-emergence, 240 h, Postemergence; for pest or weed control at 125 g/ha: 125 g ai/ha, visual rating about 10 d after treatment, read-out: Morningglory plant response rating (0 to 100 scale); for pest or weed control at 500 g/ha: 500 g ai/ha, visual injury, 0 to 100 scale (0 no effect, 100 complete control), approx. 10 d, read-out: Plant response rating, Morningglory. The procedure, abridged:
as §1

Assay [3] deals with crabgrass, large (Digitaria sanguinalis). In words: Test A postemergence. Particulars: Digitaria sanguinalis, post-emergence, 240 h, Postemergence; for pest or weed control at 125 g/ha: 125 g ai/ha, visual rating about 10 d after treatment, read-out: Crabgrass, Large plant response rating (0 to 100 scale); for pest or weed control at 500 g/ha: 500 g ai/ha, visual injury, 0 to 100 scale (0 no effect, 100 complete control), approx. 10 d, read-out: Plant response rating, Crabgrass, Large. The procedure, abridged: as §1

The subject of assay [4] is velvetleaf (Abutilon theophrasti). As to the kind of experiment: Test A preemergence. Particulars: Abutilon theophrasti, pre-emergence, 240 h, 0 to 100 scale (0 no effect, 100 complete control), read-out: Plant response rating, Velvetleaf; for pest or weed control at 500 g/ha: 500 g ai/ha, preemergence; for pest or weed control at 125 g/ha: Preemergence, 125 g ai/ha. The procedure, abridged: as §1

Assay [5] deals with wheat (Triticum aestivum). As to the kind of experiment: Test A preemergence. The note with it: Triticum aestivum, pre-emergence, 240 h, 0 to 100 scale (0 no effect, 100 complete control), read-out: Plant response rating, Wheat; for plant injury at 500 g/ha: 500 g ai/ha, preemergence; for plant injury at 125 g/ha: Preemergence, 125 g ai/ha. An outline of the steps:
as §1

Assay [6] has as its system corn (Zea mays). As to the kind of experiment: Test A preemergence. The note with it: Zea mays, pre-emergence, 240 h, 0 to 100 scale (0 no effect, 100 complete control); for Corn plant response rating (crop injury, 0 = no effect, 100 = complete kill) at 500 g/ha: 500 g ai/ha, preemergence; for Corn plant response rating (crop injury, 0 = no effect, 100 = complete kill) at 125 g/ha: Preemergence, 125 g ai/ha. The procedure, abridged: as §1

For assay [7], the system named is morningglory (Ipomoea spp.). In words: Test A preemergence. Particulars: Ipomoea, pre-emergence, 240 h, 0 to 100 scale (0 no effect, 100 complete control), read-out: Plant response rating, Morningglory; for pest or weed control at 500 g/ha: 500 g ai/ha, preemergence; for pest or weed control at 125 g/ha: Preemergence, 125 g ai/ha. The procedure, abridged:
as §1

Assay [8] has as its system crabgrass, large (Digitaria sanguinalis). In words: Test A preemergence. The note with it: Digitaria sanguinalis, pre-emergence, 240 h, 0 to 100 scale (0 no effect, 100 complete control), read-out: Plant response rating, Crabgrass, Large; for pest or weed control at 500 g/ha: 500 g ai/ha, preemergence; for pest or weed control at 125 g/ha: Preemergence, 125 g ai/ha. The procedure, abridged: as §1

In assay [9] the test system is velvetleaf (Abutilon theophrasti). As to the kind of experiment: Test G Post-Emergence Protocol. Particulars: Abutilon theophrasti, post-emergence, 312 h. The procedure, abridged:
(§2)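 Post-emergence herbicidal damage, scored visually 0–100 at 13 days. Application at 15.625, 62.5 or 250 g/ha onto 8-day-old plants grown under glasshouse control.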

In assay [10] the test system is corn (Zea mays). As to the kind of experiment: Test G Post-Emergence Protocol. Particulars: Zea mays, post-emergence, 312 h. An outline of the steps: as §2
Assay [11] concerns redroot pigweed (Amaranthus retroflexus). As to the kind of experiment: Test G Post-Emergence Protocol. The note with it: Amaranthus retroflexus, post-emergence, 312 h. The procedure, abridged: as §2
In assay [12] the test system is giant foxtail (Setaria faberi). As to the kind of experiment: Test G Post-Emergence Protocol. The note with it: Setaria faberi, post-emergence, 312 h. An outline of the steps: as §2
The subject of assay [13] is barnyardgrass (Echinochloa crus-galli). In words: Test G Post-Emergence Protocol. Particulars: Echinochloa crus-galli, post-emergence, 312 h. An outline of the steps:
as §2

Assay [14] deals with ivy-leaved morning glory (Ipomoea hederacea). As to the kind of experiment: Test G Post-Emergence Protocol. The note with it: Ipomoea, post-emergence, 312 h. An outline of the steps:
as §2

The structures appear in SMILES notation.

Consider `N#Cc1ccc(NC(=O)C2C(=O)NCC2c2ccccc2)cc1` (centres unmarked) [Compound 1355], for which the pest or weed control at 125 g/ha in assay [1], in assay [2], in [3], in assay [4], in assay [7] and in assay [8] was 0% in each case. The pest or weed control at 500 g/ha in assay [1], in assay [2], in [3], in assay [4], in assay [7] and in assay [8] was 0% each time. Also, the plant injury at 500 g/ha in assay [5] is 0%. Besides, in [5], the plant injury at 125 g/ha turned out to be 0%. Also, the Corn plant response rating (crop injury, 0 = no effect, 100 = complete kill) at 500 g/ha in assay [6] came out at 0%. For the same molecule, in assay [6], the Corn plant response rating (crop injury, 0 = no effect, 100 = complete kill) at 125 g/ha amounted to 0%.
Regarding `O=C1NCC(c2ccccc2)C1C(=O)Nc1ccccc1` (centres unmarked) [Compound 1358], the pest or weed control at 125 g/ha in [1] was found to be 0%; in assay [2] it was 0%; in assay [3], 0%; in assay [4] it was 0%; in assay [7], 0%; in assay [8] it was 20%. In addition, the pest or weed control at 500 g/ha in [1] came out at 0%; in assay [2] it was 0%; in assay [3], 30%; in assay [4] it was 0%; in [8] it was 80%. In addition, the plant injury at 500 g/ha in [5] turned out to be 50%. The plant injury at 125 g/ha in assay [5] came out at 0%. The same molecule yielded a Corn plant response rating (crop injury, 0 = no effect, 100 = complete kill) at 500 g/ha in assay [6] of 0%. Also, the Corn plant response rating (crop injury, 0 = no effect, 100 = complete kill) at 125 g/ha in [6] was determined as 0%.
As to `O=C1NCC(c2ccccc2)C1C(=O)Nc1ccccc1Oc1ccccc1` (centres unmarked) [Compound 1357], the pest or weed control at 125 g/ha in assay [1], in assay [2], in assay [3], in assay [4], in [7] and in assay [8] was 0% each time. Also, the pest or weed control at 500 g/ha in assay [1], in [2], in assay [3], in assay [4], in assay [7] and in assay [8] was 0% in each case. The plant injury at 500 g/ha in assay [5] is 0%. Besides, in assay [5], the plant injury at 125 g/ha stood at 0%. The molecule also showed a Corn plant response rating (crop injury, 0 = no effect, 100 = complete kill) at 500 g/ha in assay [6] of 0%. This molecule also displayed a Corn plant response rating (crop injury, 0 = no effect, 100 = complete kill) at 125 g/ha in assay [6] of 0%.
Consider `CN1C[C@@H](c2ccc(C(F)(F)F)cc2)[C@H](C(=O)Nc2ncc(C#N)s2)C1=O` (racemic) [Compound 1528], for which the pest or weed control at 15.625 g/ha in [9] (15.625 g ai/ha, evaluated after 13 days (100=total damage to plant; 0=no damage to plant), read-out: Velvetleaf damage rating) amounted to 0%; in [11] (15.625 g ai/ha, evaluated after 13 days (100=total damage to plant; 0=no damage to plant), read-out: Pigweed, Redroot damage rating), 0%; in assay [12] (15.625 g ai/ha, evaluated after 13 days (100=total damage to plant; 0=no damage to plant), read-out: Foxtail, Giant damage rating), 0%; in assay [13] (15.625 g ai/ha, evaluated after 13 days (100=total damage to plant; 0=no damage to plant), read-out: Barnyardgrass damage rating) it was 0%; in assay [14] (15.625 g ai/ha, evaluated after 13 days (100=total damage to plant; 0=no damage to plant), read-out: Morningglory, Ivy-leaved damage rating), 0%. Besides, the pest or weed control at 62.5 g/ha was 0% in [9] (62.5 g ai/ha, evaluated after 13 days, read-out: Velvetleaf damage rating (100=total damage to plant; 0=no damage to plant)); 0% in assay [11] (62.5 g ai/ha, evaluated after 13 days, read-out: Pigweed, Redroot damage rating (100=total damage to plant; 0=no damage to plant)); 0% in assay [12] (62.5 g ai/ha, evaluated after 13 days, read-out: Foxtail, Giant damage rating (100=total damage to plant; 0=no damage to plant)); 0% in assay [13] (62.5 g ai/ha, evaluated after 13 days, read-out: Barnyardgrass damage rating (100=total damage to plant; 0=no damage to plant)); 0% in assay [14] (62.5 g ai/ha, evaluated after 13 days, read-out: Morningglory, Ivy-leaved damage rating (100=total damage to plant; 0=no damage to plant)). Moreover, the pest or weed control at 250 g/ha in assay [9] (250 g ai/ha, evaluated after 13 days, read-out: damage to plant, Velvetleaf (100=total damage to plant; 0=no damage to plant)) was 0%; in [11] (250 g ai/ha, evaluated after 13 days, read-out: damage to plant, Pigweed, Redroot (100=total damage to plant; 0=no damage to plant)) it was 0%; in assay [12] (250 g ai/ha, evaluated after 13 days, read-out: damage to plant, Foxtail, Giant (100=total damage to plant; 0=no damage to plant)), 0%; in assay [13] (250 g ai/ha, evaluated after 13 days, read-out: damage to plant, Barnyardgrass (100=total damage to plant; 0=no damage to plant)) it was 0%; in [14] (250 g ai/ha, evaluated after 13 days, read-out: damage to plant, Morningglory, Ivy-leaved (100=total damage to plant; 0=no damage to plant)), 0%. In [10] (15.625 g ai/ha, evaluated after 13 days (100=total damage to plant; 0=no damage to plant), read-out: Corn damage rating), the plant injury at 15.625 g/ha was found to be 0%. The plant injury at 62.5 g/ha in [10] (62.5 g ai/ha, evaluated after 13 days, read-out: Corn damage rating (100=total damage to plant; 0=no damage to plant)) came to 0%. Moreover, the plant injury at 250 g/ha in assay [10] (250 g ai/ha, evaluated after 13 days, read-out: damage to plant, Corn (100=total damage to plant; 0=no damage to plant)) is 0%.
